Assay results from patent US5942641A, “Fluorenone derivatives, process for preparing the same and central or peripheral nerve degeneration repair and protective agent” (Otsuka Pharmaceutical Co., Ltd., priority 1993, dated 1999).
pIC50: −log10 of the molar value.

Key:
[1] = target: T1, C-GMP-PDE (type V) (Homo sapiens, UniProt O76074); test: Pharmacological test 4: C-GMP-PDE (type V) inhibition action; assay type: biochemical; conditions: FI fraction from human blood platelet
T1 construct: from tissue; host or cells: human blood platelets (healthy adult), DEAE-cellulose fraction FI
Procedure: (C-GMP-PDE (type V) inhibition action)
The separation and purification of PDE from a human blood platelet was conducted according to a method of Hidaka et al. [Hidaka, H. and Asano, I., Biochem. Biophys. Acta 429, 485-497 (1976)]. That is, a blood platelet derived from a healthy adult was washed with water, floated with a Tris buffer solution and centrifuged. Then, the supernatant thereof was applied to DEAE-cellulose and separated into three fractions, FI, FII and FIII due to concentration gradient of sodium acetate. By using FI having high affinity to C-GMP, the inhibition action of the test compound was examined. The influence of the drug on PDE was represented by the inhibition ratio to PDE activity in the absence of the drug.

[2] = tested on: mouse dorsal root ganglion cells; test: Pharmacological Test 2: neurite outgrowth in primary culture of mouse dorsal root ganglion cells; assay type: cell-based, mouse (C57BL/6); parameters: key: +: positive; ±: false positive; -: negative; conditions: Dose 10^-7 (mole); 7 days culture
Procedure: (The measurement of neurite outgrowth in primary culture of mouse dorsal root ganglion cells)
Preparation of cells was conducted according to a method of Horie et al. [H. Horie., FEBS, 296, 23 (1990)]. That is, C57BL/6 male mice aged 10 to 15 weeks were used. They were bleeded to death under ether anesthetization and the backbone from cervical vertebra to sacral vertebra was removed. The capsule of dorsal root ganglion of which ventral root and dorsal root had been cut was stripped in a Ham F12 medium (Flow laboratories) and then ganglia were treated with 0.25% collagenase (Worthington Biochemical Corporation) at 37° C. for 90 minutes. The medium was replaced by a Hank's physiological buffer solution containing no calcium and magnesium and cells were treated with 0.25% trypsin (Flow Laboratories) at room temperature for 20 minutes. A trypsin inhibitor (Sigma, 100 μg/ml) was added to terminate the enzyme reaction and trituration was conducted 20 times using a tapered Pasteur pipette. The medium was replaced again by the Ham F12 medium and cells were put through a nylon mesh (150 μm) to remove a cell mass which had not been separated. Cells were suspended in the Ham F12 medium containing a N1 additive [Bottenstein, J. E., Exp. Cell. Res., 125, 183 (1980)] (kanamycin of 60 μg/ml added).
A poly-1-lysine-coating cell disc as a culture medium which had been subjected to 10 μg/ml laminin (Koken Cell Gen) coating treatment at 37° C. for 3 hours was placed on a 24 well dish and nerve cells (5000 to 10000 cells/dish) were seeded. The test compound (concentration: 0.01 mol/l) was dissolved in dimethyl sulfoxide and diluted with a phosphate buffer solution to adjust to a final concentration, and then added to a culture solution. Cells were cultured in 5% CO2 -95% air phase at 37° C. for 7 days.
For the measurement of neurite outgrowth, the cell disc was washed with a phosphate buffer solution 7 days after initiation of the culture and immobilized with 4% paraformaldehyde at 4° C. for 24 hours, and then immune staining was conducted with Vecstatin ABC kit (Vector) using a neurofilament antibody (200 kD, manufactured by Boehringer Mannheim GmbH). The periphery of the cell disc was restrictively observed under microscopy, and the amount of neurofilament (whole length per well) was evaluated by comparing with the control well according to the following criteria: positive (+), false positive (±) and negative (-).

[3] = tested on: Nerve cells of the cerebral cortex; test: Pharmacological test 1: neurite sprouting (NS) of cultured fetal rat cerebral cortex nerve cells, phase contrast microscopy versus control; assay type: cell-based; parameters: key: ++: extremely strong in comparison with the control; +: strong in comparison with the control; ±: same as the control; -: inferior to the control; conditions: 10 days after initiation of culture
Excerpt: Nerve cells of the cerebral cortex were removed aseptically from a fetal rat (17 days-old) and cultured according to a Asou's method [Asou, H. Brain Res., 332; pages 355-357 (1985)]. After the meninx, blood vessel, etc. were removed from the cerebral hemisphere, they were put through a stainless steel mesh (pore size: 140μm). Then, the isolated cells were floated on a culture medium (Eagle's basal medium containing 10% fetal bovine serum and glucose of 1 g/l) and 1.5×10^6 cells were respectively seeded on a dish (diameter: 35 mm) coated with poly-L-lysine to initiate the culture (37° C., 3% CO2). After 24 hours, the culture medium was replaced by a culture medium containing a test compound and cultured for additional 9 days.
10 Days after initiation of the culture, neurite sprouting (NS) was evaluated under phase contrast microscopy by comparing with the control group.

[4] = tested on: hyperoxidation reaction of lipid (microsome fraction); test: Pharmacological test 3: antioxidation action, hyperoxidation reaction of lipid due to ascorbic acid induction in liver microsome fraction (TBA value); assay type: biochemical, Wister rat; conditions: 37° C., 15 minutes; 200 μM ascorbic acid, 20 μM ferrous sulfate; read-out: IC50 (antioxidation, 50% inhibition concentration)
Procedure: (The measurement of antioxidation action)
The antioxidation action was measured using the hyperoxidation reaction of lipid due to ascorbic acid induction [Shimada, O. and Yasuda, H. BBA489, 163-172 (1977)].
Microsome fraction was obtained from a lever of Wister rat by a Kato's method [J. Biochem., 59, 574 (1966)]. This fraction was added to a 60 mM potassium phosphate buffer solution (containing 45 mM potassium chloride, 200 μM ascorbic acid and 20 μM ferrous sulfate) in an amount of 1 mg/ml and the test compound (0.1% dimethyl sulfoxide) was added, and the mixture was incubated at 37° C. for 15 minutes. The same amount of 10% trichloroacetic acid was added and the resultant was centrifuged. A portion of the supernatant was collected and the amount of malondialdehyde due to thiobarbituric acid (TBA value) was measured [Klaassen, C. D. and Plaa, G. L. Biochem. Pharmacol., 18: 2019 (1969)]. The inhibition ratio was calculated by the following formula:
Inhibition ratio={1-(TBA value of specimen)/(TBA value of […]

Compound	pIC50 [1]	Neurite outgrowth action [2]	neurite sprouting (NS) ([3]; Dose 10^-7 (mole))	pIC50 [4]	neurite sprouting (NS) ([3]; Dose 10^-5 (mole))
C=CCc1cc2c(c(CC=C)c1O)C(=O)c1c(CC=C)cc(CC=C)c(O)c1-2 [Example 31]	6.40	+	+	6.70	
C=CCc1ccc2c(c1O)-c1ccc(O)c(CC=C)c1C2=O [Example 27, 1,6-Diallyl-2,5-dihydroxyfluorenone]	5.06	+		5.80	+
